Assay results published in US8044089B2, “3-3-di-substituted-oxindoles as inhibitors of translation initiation” (President and Fellows of Harvard College, priority 2004, dated 2011).
Like-named read-outs stand apart in the source and are kept apart here.

Legend:
eIF2α = eIF2α phosphorylation measured by Western blot; type: cell-based; conditions: for eIF2α-P (phosphorylation of eIF2α measured by Western blot): unit or reference not given
From the text: (§1) As a non-limiting example, compounds 1272 and 1273 (set forth in Table 1) were synthesized starting from 3-bromoaniline, which upon condensation with hydroxylamine and chloral hydrate followed by concentrated sulfuric acid yielded an inseparable regioisomeric mixture of 4- and 6-bromo isatins. The addition of the two phenyl groups to the three position of the oxindole allowed easy chromatographic separation of the 4- and 6-bromo-3,3-diphenyloxindoles 1272 and 1273. Table 1 sets forth biological data for diaryloxindole compounds including, but not limited to 1272 and 1273. For Tables 1-14, Ca^2+ refers to Ca^2+ release from intracellular stores where a “+” denotes release and a “+/−” denotes inconclusive; eIF2α-P refers to phosphorylation of eIF2α measured by Western blot; SRB refers to the inhibitory concentration to reduce cell growth by 50% (IC50) for growth inhibition of A549 lung cancer cells; and n.d. is not determined.
(§2) Without intending to be bound by theory, the mechanism of action of translation initiation inhibitors is set forth in FIG. 1, and includes the depletion (complete or partial depletion) of intracellular calcium (Ca^2+) stores and phosphorylation of eIF2α. Compounds synthesized using the approaches described herein were screened for their ability to partially deplete intracellular Ca^2+ stores using FURA-2AM loaded cells (Benzaquen et al. (1995) Nature Medicine, 1:534, incorporated herein by reference in its entirety for all purposes). A limited subset of compounds were further screened for their ability to deplete endoplasmic reticulum (ER) Ca^2+. The Ca^2+ content of the ER was monitored using ER-targeted, Ca^2+ sensitive, recombinant proteins. These recombinant proteins emitted light by fluorescent resonance energy transfer (FRET) as a function of the Ca^2+ content of the medium. Such assays are previously described (Miyawaki, A.; Mizuno, H.; Llopis, J.; Tsien, R. Y.; Jalink, K. Cameleons as cytosolic and intra-organellar calcium probes, Oxford University Press: Oxford, London, 2001; pp 3-16, incorporated herein by reference in its entirety for all purposes). Compounds that depleted Ca^2+ were further evaluated for their ability to phosphorylate eIF2α. eIF2α phosphorylation was measured by Western blot analysis using the phospho-specific anti-eIF2α antibody, as previously described (Aktas et al. (1998) Proc. Natl. Acad. Sci. USA, 95:8280, incorporated herein by reference in its entirety for all purposes).

A549 lung cancer cells = test: SRB growth inhibition of A549 lung cancer cells; type: cell-based, human; conditions: for IC50: A549 lung cancer cells, unit inferred, read-out: SRB (IC50 for growth inhibition of A549 lung cancer cells)
From the text: As a non-limiting example, compounds 1272 and 1273 (set forth in Table 1) were synthesized starting from 3-bromoaniline, which upon condensation with hydroxylamine and chloral hydrate followed by concentrated sulfuric acid yielded an inseparable regioisomeric mixture of 4- and 6-bromo isatins. The addition of the two phenyl groups to the three position of the oxindole allowed easy chromatographic separation of the 4- and 6-bromo-3,3-diphenyloxindoles 1272 and 1273. Table 1 sets forth biological data for diaryloxindole compounds including, but not limited to 1272 and 1273. For Tables 1-14, Ca^2+ refers to Ca^2+ release from intracellular stores where a “+” denotes release and a “+/−” denotes inconclusive; eIF2α-P refers to phosphorylation of eIF2α measured by Western blot; SRB refers to the inhibitory concentration to reduce cell growth by 50% (IC50) for growth inhibition of A549 lung cancer cells; and n.d. is not determined. […]

[1] = test system: intracellular Ca^2+ stores; test: Ca2+ release from intracellular stores (FURA-2AM loaded cells); type: cell-based; set-up: key to Ca^2+ (Ca^2+ release from intracellular stores): a “+” denotes release; a “+/−” denotes inconclusive
From the text: as §1, §2

Row | Compound | IC50 (A549 lung cancer cells) [µM] | IC50 (A549 lung cancer cells; Homo sapiens) [µM] | eIF2α-P (phosphorylation of eIF2α measured by Western blot) (eIF2α) | Ca^2+ (Ca^2+ release from intracellular stores) [1] | growth inhibition of cancer cells (in words) (A549 lung cancer cells; A549) | eIF2α phosphorylation (in words) (eIF2α)
1 | O=C1Nc2c(I)cccc2C1(c1ccccc1)c1ccccc1 [Compound 1267] | – | – | 1.88 | – | – | –
2 | C=CCCCOc1ccc(C2(c3cc(C(C)(C)C)ccc3O)C(=O)Nc3ccccc32)cc1 (stereo not shown) [Compound 1218] | 7 | – | 1.36 | – | – | –
3 | CCc1ccc2c(c1)NC(=O)C2(c1ccccc1)c1ccccc1 [Compound 1271] | 4 | – | 1.58 | + | – | –
4 | CC(C)(C)c1cccc(C2(c3ccccc3)C(=O)Nc3ccccc32)c1 (stereo not shown) [Compound 1217] | 4 | – | 1.5 | + | – | –
5 | CCc1cccc2c1NC(=O)C2(c1ccccc1)c1cc(C(C)(C)C)ccc1O (stereo not shown) [Compound 1256] | 3 | – | 1.3 | + | – | –
6 | CC(=O)Nc1ccc(S(=O)(=O)Nc2cc(O)c(C)cc2C2(c3ccccc3)C(=O)Nc3ccccc32)cc1 (stereo not shown) [Compound 1512] | 4 | – | 1.01 | – | – | –
7 | CCCCc1ccc(O)c(C2(c3ccccc3)C(=O)Nc3ccccc32)c1 (stereo not shown) [Compound 1287] | 3 | – | 10.08 | + | – | –
8 | CC(C)(C)c1ccc(C2(c3ccccc3)C(=O)Nc3ccccc32)cc1 (stereo not shown) [Compound 1349] | 8 | – | 1.27 | + | – | –
9 | O=C1Nc2ccccc2C1(c1ccccc1)c1cc(C2CCCC2)ccc1O (stereo not shown) [Compound 1289] | 3 | – | 6.49 | + | – | –
10 | CC(C)(C)c1ccc(O)c(C2(c3ccccc3)C(=O)Nc3ccc(I)cc32)c1 (stereo not shown) [Compound 1213] | 3 | – | 2 | +/− | – | –
11 | CC(C)(C)c1ccc(O)c(C2(c3ccccc3)C(=O)Nc3c(C(=O)O)ccc(Cl)c32)c1 (stereo not shown) [Compound 1418] | 16 | – | 7.47 | + | – | –
12 | CC(C)(C)c1ccc(OC(=O)CCCC(=O)O)c(C2(c3ccccc3)C(=O)Nc3ccccc32)c1 (stereo not shown) [Compound 1396] | 7 | – | 1.72 | – | – | –
13 | CCCCCCCCc1ccc(O)c(C2(c3ccccc3)C(=O)Nc3ccccc32)c1 (stereo not shown) [Compound 1284] | 3 | – | 2.91 | – | – | –
14 | Cc1cc(C2(c3ccccc3)C(=O)Nc3ccccc32)c(NC(=O)OCC2c3ccccc3-c3ccccc32)cc1O (stereo not shown) [Compound 1395] | 3 | – | 1.84 | – | – | –
15 | Cc1cc(C2(c3ccccc3)C(=O)Nc3ccccc32)c(NS(=O)(=O)c2ccc(-c3ccccc3)cc2)cc1O (stereo not shown) [Compound 1593] | 4 | – | 2.22 | – | – | –
16 | COc1ccc(C2(c3ccccc3)C(=O)Nc3ccccc32)cc1 (stereo not shown) [Compound 1294] | 10 | – | 1.52 | – | – | –
17 | CCCCCCCCCCCCC1(c2cc(C(C)(C)C)ccc2O)C(=O)Nc2ccccc21 (stereo not shown) [Compound 1274] | 3 | – | 0.91 | – | – | –
18 | Cc1cc(C2(c3ccccc3)C(=O)Nc3ccccc32)c(NS(=O)(=O)c2ccc(Oc3ccccc3)cc2)cc1O (stereo not shown) [Compound 1594] | 5 | – | 3.73 | – | – | –
19 | Cc1cc(C2(c3ccccc3)C(=O)Nc3ccccc32)c(NC(=O)c2ccc(C(C)(C)C)cc2)cc1O (stereo not shown) [Compound 1493] | 3 | – | 2.06 | – | – | –
20 | CC(C)(C)c1ccc(O)c(C2(c3cccs3)C(=O)Nc3ccccc32)c1 (stereo not shown) [Compound 1222] | 9 | – | – | + | – | –
21 | CN(C)c1ccc(C2(c3ccc(O)cc3)C(=O)Nc3ccccc32)cc1 (stereo not shown) [Compound 1262] | 10 | – | – | +/− | – | –
22 | COC(=O)C(Cc1ccc(O)c(C2(c3ccccc3)C(=O)Nc3ccccc32)c1)NC(=O)OCC1c2ccccc2-c2ccccc21 (stereo not shown) [Compound 1172] | – | – | 1.94 | + | – | –
23 | [N-]=[N+]=NCCCCOc1cccc(C2(c3ccccc3)C(=O)Nc3ccccc32)c1O (stereo not shown) [Compound 1200] | 3 | – | – | + | – | –
24 | CC(C)(C)c1ccc(OS(=O)(=O)CC23CCC(CC2=O)C3(C)C)c(C2(c3ccccc3)C(=O)Nc3ccccc32)c1 (stereo not shown) [Compound 1319] | 2 | – | – | + | – | –
25 | Cc1cc2c(c(C3(c4ccccc4)C(=O)Nc4ccccc43)c1)NCC2 (stereo not shown) [Compound 1313] | – | > 20 | – | + | – | –
26 | CC(C)(C)c1ccc(O)c(C2(c3ccccc3)C(=O)Nc3ccc(NS(=O)(=O)c4cccc5ccccc45)cc32)c1 (stereo not shown) [Compound 1238] | 3 | – | – | +/− | – | –
27 | O=C1Nc2c(CO)ccc(Cl)c2C1(c1ccccc1)c1ccccc1 [Compound 1398] | 14 | – | 1.48 | – | reduced potency of tumor cell growth inhibition | reduced eIF2α phosphorylation relative to compound 1392

Continued, in another order:

Row | IC50 (A549 lung cancer cells) [µM] | IC50 (A549 lung cancer cells; Homo sapiens) [µM] | Compound | eIF2α-P (phosphorylation of eIF2α measured by Western blot) (eIF2α) | Ca^2+ (Ca^2+ release from intracellular stores) [1] | growth inhibition of cancer cells (in words) (A549 lung cancer cells; A549) | eIF2α phosphorylation (in words) (eIF2α)
28 | 3 | – | Cc1cc(C2(c3ccccc3)C(=O)Nc3ccccc32)c(NS(=O)(=O)c2ccc(I)cc2)cc1O (stereo not shown) [Compound 1592] | 5.19 | + | – | –
29 | 4 | – | Cc1ccccc1C1(c2cc(C(C)(C)C)ccc2O)C(=O)Nc2ccccc21 (stereo not shown) [Compound 1225] | 1.69 | + | – | –
30 | 8 | – | CC(C)(C)c1ccc(O)c(C2(c3ccccc3)C(=O)Nc3cccc(Cl)c32)c1 (stereo not shown) [Compound 1209] | 2.08 | + | – | –
31 | 14 | – | O=C1Nc2ccc([N+](=O)[O-])cc2C1(c1ccccc1)c1ccccc1 [Compound 1265] | 2.35 | +/− | – | –
32 | 14 | – | CCc1cccc2c1NC(=O)C2(c1ccccc1)c1ccccc1 [Compound 1268] | 2.19 | – | – | –
33 | 13 | – | C#CC1(c2cc(C(C)(C)C)ccc2O)C(=O)Nc2ccccc21 (stereo not shown) [Compound 1276] | 0.75 | + | – | –
34 | 9 | – | O=C1Nc2ccc(S(=O)(=O)O)cc2C1(c1ccccc1)c1ccccc1 [Compound 1266] | 1.62 | – | – | –
35 | 3 | – | CC(C)(C)OC(=O)NCCOc1ccc(C(C)(C)C)cc1C1(c2ccccc2)C(=O)Nc2ccccc21 (stereo not shown) [Compound 1329] | 0.89 | – | – | –
36 | 10 | – | CC(C)(C)c1ccc(O)c(C2(C3CCCCC3)C(=O)Nc3ccccc32)c1 (stereo not shown) [Compound 1277] | 1.08 | – | – | –
37 | 10 | – | COc1ccc(C2(c3ccc(OC)cc3O)C(=O)Nc3ccccc32)c(O)c1 [Compound 1163] | – | + | – | –
38 | 15 | – | C=CCN1C(=O)C(c2ccccc2)(c2ccccc2)c2ccccc21 [Compound 1303] | – | +/− | – | –
39 | 11 | – | CCCc1ccc(C2(c3ccccc3)C(=O)Nc3ccccc32)cc1 (stereo not shown) [Compound 1296] | – | + | – | –
40 | > 20 | – | O=C(O)c1cccc2c1NC(=O)C2(c1ccccc1)c1ccccc1 [Compound 1353] | 1.54 | – | – | –
